From patent US20250092353A1, “COMMENSAL FUNGUS AND USES THEREOF” (YEDA RESEARCH AND DEVELOPMENT CO. LTD., priority 2022, published 2025)

Tests used:
[1] = test system: C. albicans; assay: In vitro co-culture assay of C. albicans and K. weizmannii; type: cell-based, Candida albicans; settings: in vitro coculture, flow cytometry
Procedure: FIGS. 2A-2F include micrographs, graphs, a plot, and a curve showing in vitro culture characteristics of K. weizmannii. (2A) Representative images of C. albicans and K. weizmannii in liquid media in presence of filament-inducing conditions, n=3 independent experiments. (2B) A graph showing largest differences in growth between K. weizmannii and C. albicans with different carbon sources, based on a z-score > or <2. Differences were calculated using the normalized area under the curve (AUC) of K. weizmannii and C. albicans. Normalization of the AUC are based on the growth of both species with glucose. Size of data points corresponds to the normalized AUC of K. weizmannii with the corresponding carbon source. All measurements were done using the Biolog Phenotype MicroArrays in biological triplicates. […] The data points are color-coded according to the different types of carbon sources. (2C) A graph showing the largest differences in growth between K. weizmannii and C. albicans with different nitrogen sources, based on a z-score greater than or less than 2. Differences were calculated using AUC of K. weizmannii and C. albicans and normalized based on the growth of both species with glutamine. […] GFP expressing C. albicans was detected by flowcytometry to discriminate between fungi, n=2 independent experiments.

[2] = test system: C. albicans SC5314 (ENO1-GFP); assay: In vivo competition with C. albicans in germ-free animals; design: species or system mice; settings: oral mixture of the two fungi
Excerpt: FIGS. 3A-3M include fluorescent micrographs, graphs, and a scheme, showing K. weizmannii competition with C. albicans in colonized animals. (3A) A representative picture of a far-red fluorescent reporter Kazachstania strain (K. weizmannii ENO1-Mirf). (3B-C) Recoverable fecal K. weizmannii in colonized wild-type animals (without antibiotics) one and six months after single oral K. weizmannii ENO1-Mirf inoculation. (3D) Flow cytometric analysis of C. albicans SC5314 (ENO1-GFP), K. weizmannii (ENO1-Mirf), and mixed cultures used for oral inoculation (3E). […] Quantification (n=3-5 mice per group, 4 independent experiments) (see (3D). (3H) Schematic non-limiting outline of a co-housing experiment. (3I) Representative flow cytometric feces analysis of colonized mice 4 weeks after initial colonization (before cohousing) and 2 weeks after co-housing. (N=4 per group). (3J) Percentages of respective labelled fungi in feces of C. albicans, K. weizmannii colonized animals, before and after co-housing in Abx presence (except for day 48 and 58); antibiotics withdrawal on day 46 of cohousing, n=4 per group, representative of 2 independent experiments. (3K) Flow cytometric analysis of feces of germfree animals 1 week after oral inoculation of single fungi cultures or mixed C. albicans SC5314 (ENO1-GFP)/K. weizmannii (ENO1-Mirf) culture. […]

Kazachstania weizmannii [K. weizmannii]
growth interference in co-culture with C. albicans [1]: grew together without interference
C. albicans colonization after co-inoculation [2]: prevented efficient C. albicans colonization
